Data as given in patent US5648355A, “Method of treatment of endogenous, painful gastrointestinal conditions of non-inflammatory, non-ulcerative origin” (priority 1994, dated 1997).
Entries after “also recorded” stand apart in the source; their conditions may differ. Structures can show the parent of a compound that is named as a salt. Where two headings read alike, the source gives them in different places.

What was measured:
[1] = system: irritable bowel syndrome; test: patient treatment, irritable bowel syndrome; format: in vivo, human; conditions: person; for pain: two months
[2] = system: abdominal migraine; test: patient treatment, abdominal migraine; format: in vivo, human; conditions: person; 3 μg/day subcutaneous, four months
Experimental: A patient with a two-year history of abdominal migraine, experienced constant gastrointestinal pain which was considerably worse immediately premenstrually. After treatment with the Gn-RH analogue LUPRON (3 μg/day subcutaneous injection) for four months, they were symptom-free.

[3] = system: PP2A; conditions: cited from earlier work
[4] = system: Type 1 phosphatase (PP1); conditions: cited from earlier work
[5] = system: PP2B; conditions: cited from earlier work
[6] = system: PP2C; conditions: cited from earlier work
[7] = system: rat mucosal mast cell (MMC); test: RMCPII release from rat ileal explants, toxin A; format: cell-based; conditions: for RMCPII released, Ketotifen + Toxin A: ketotifen 1 mg/kg twice daily intragastrically 4 days, toxin A 5 μg/ml, n = 6
Experimental: The following experiment was performed in order to evaluate rat mucosal mast cell (MMC) degranulation by measuring rat mast cell protease II (RMCPII), a specific marker for MMC, and by electron microscopy.
Rats were treated intragastrically for four (4) days with either 0.5 ml of saline containing ketotifen (1 mg/kg twice daily) or saline alone. On day five, the animals were euthanized, ileum was removed and ileal explants were placed in organ culture. The explants were incubated at 37° C. in a medium containing either 5 μg/ml of toxin A in 0.01 ml of 50 mM Tris buffer, or buffer alone. Aliquots (50 μl) of medium were collected at specified times and RMCPII levels were determined. Results are expressed in Table 4 as nanograms of RMCPII released per milligram of tissue wet weight (Pothoulakis et al., Gastroenterology 105:701-707, 1993).

[8] = system: rat mucosal mast cell; test: inhibition of rat mucosal mast cell degranulation in vitro (histamine release); format: cell-based; conditions: read-out: ID20 for histamine release
Text: It is not necessary to the operability of the present invention that each member of the foregoing classes inhibits mast cell degranulation to the same extent. The ability of a particular substance to inhibit mast cell degranulation can be readily determined empirically. Thus, mast cells from rats (pieces of small intestine) or humans (intestinal biopsies) can be obtained; otherwise, RBL cells or immortalized human mucosal-like mast cells (HMC-1) are kept in culture. Any of these cells then are exposed to various concentrations of a putative inhibitory compound, to allow for action by the putative inhibitor at critical sites. Efficacy with respect to inhibition of mast cell degranulation then is ascertained; that is, the intestinal biopsies, explants or cultured cells thus treated are used as such or washed free of unbound test compound before exposure to a stimulus known to induce mast cell degranulation. A compound suitable for use in accordance with the present invention is recognized as one that prevents the stimulus from causing degranulation, presumably by binding to specific receptors or by inactivating a crucial step in the degranulation process.
A pharmaceutically effective dose for a given mast cell degranulation-blocking agent can be approximated by its ID20, which is the dose necessary to cause 20% inhibition in mast cells when applied to mast cells stimulated in vitro.

[9] = system: rat mast cell protease II (RMCPII); test: rat-immobilization assay, stress model, intestinal RMCPII; format: in vivo; conditions: for rat intestinal RMCPII, pre-treated w/ ketotifen: 1 mg/kg i.p. twice daily for four days before immobilization, n = 3
Experimental: An assay by which efficacy of a mast cell degranulation-blocking agent can be tested systemically in the present context is the rat-immobilization assay, […] After the immobilization, a specific gastrointestinal mast cell mediator, rat mast cell protease II (RMCPII), is measured. This assay is accepted as a non-ulcerogenic model of stress. See Williams et al., Am. J. PhysioI. 253:582-86 (1987).
Ketotifen was administered intraperitoneally to rats (1 mg/kg body weight, twice daily) for four days prior to immobilization.

[10] = system: rat basophilic leukemia (RBL) cells; conditions: Kouretas et al. 1991; cited from earlier work
[11] = system: abdominal migraine; conditions: in vivo; cited from earlier work
[12] = system: intracranial mast cells; conditions: cited from earlier work
[13] = system: gastrointestinal mast cells; conditions: cited from earlier work
[14] = system: mast cell; conditions: effective dose causing 20% secretion; cited from earlier work
[15] = inhibitory dose causing 20% inhibition, rat mucosal mast cells in vitro

Question: For `CC/C(=C(\c1ccccc1)c1ccc(OCCN(C)C)cc1)c1ccccc1` [tamoxifen citrate], which pain ([1]; 40 mg/day orally) is on record?
Answer: substantially eliminated their pain

Question: For `CCNC(=O)[C@@H]1CCCN1C(=O)[C@H](CCCNC(=N)N)NC(=O)[C@H](CC(C)C)NC(=O)[C@@H](CC(C)C)NC(=O)[C@H](Cc1ccc(O)cc1)NC(=O)[C@H](CO)NC(=O)[C@H](Cc1c[nH]c2ccccc12)NC(=O)[C@H](Cc1c[nH]cn1)NC(=O)[C@@H]1CCC(=O)N1` [LUPRON, leuprolide acetate], which “symptoms of abdominal migraine” value [2] is on record?
Answer: symptom-free

Question: For `C=C1[C@@H](O)[C@@H]2O[C@]3(CC[C@H](/C=C/[C@@H](C)[C@@H]4CC(C)=C[C@@]5(O[C@H](C[C@@](C)(O)C(=O)O)CC[C@H]5O)O4)O3)CC[C@H]2O[C@@H]1[C@@H](O)C[C@H](C)[C@H]1O[C@@]2(CCCCO2)CC[C@H]1C` [okadaic acid], which “effect on PP2A” value [3] is on record?
Answer: inhibited

Question: What about the “effect on PP1” value [4] of the same compound?
Answer: inactivated

Question: And the “effect on PP2B” value [5]?
Answer: inhibited

Question: What about the “effect on PP2C” value [6] of the same compound?
Answer: insensitive

Question: With `CN1CCC(=C2c3ccccc3CC(=O)c3sccc32)CC1` [Ketotifen] as the compound, how does the “RMCPII released, Ketotifen + Toxin A” value ([7]; 30 min) read?
Answer: 2.9 ± 1.0 nanograms of RMCPII released p

Question: What about the “RMCPII released, Ketotifen + Toxin A” value ([7]; 60 min, p < 0.05 vs Toxin A) of the same compound?
Answer: 3.0 ± 1.1 nanograms of RMCPII released p

Question: What about the “RMCPII released, Ketotifen + Toxin A” value ([7]; 120 min, p < 0.01 vs Toxin A) of the same compound?
Answer: 4.2 ± 0.9 nanograms of RMCPII released p

Question: What about the “RMCPII released, Ketotifen + Toxin A” value ([7]; 180 min, p < 0.01 vs Toxin A) of the same compound?
Answer: 6.7 ± 1.9 nanograms of RMCPII released p

Question: What about the “release of RMCPII from rat ileal explants (in words)” value ([7]; toxin A stimulus) of the same compound?
Answer: effectively inhibits the release of RMCPII

Question: What about the IC20 ([8]; Rattus norvegicus) of the same compound?
Answer: 10000 nM

Question: And the “rat intestinal RMCPII, pre-treated w/ ketotifen” value ([9]; 60 min)?
Answer: 0.5 ng/mL

Question: And the “rat intestinal RMCPII, pre-treated w/ ketotifen” value ([9]; 120 min, p < 0.001 vs. immobilized)?
Answer: 0.8 ng/mL

Question: And the “secretion of RMCPII during stress (in words)” value ([9]; rat-immobilization assay)?
Answer: preventing secretion of RMCPII

Question: And the pain ([1]; 4 mg/day)?
Answer: their pain subsided significantly

Question: Which “binding to RBL cells” value [10] does the source give for `CC(=O)[C@H]1CC[C@H]2[C@@H]3CCC4=CC(=O)CC[C@]4(C)[C@H]3CC[C@]12C` [progesterone] here?
Answer: bind

Question: For `CC(C)NCC(O)COc1cccc2ccccc12` (centres unmarked) [propranolol], which “effect in abdominal migraine” value [11] is on record?
Answer: seem not to work

Question: For `O=C(O)c1cc(=O)c2c(OCC(O)COc3cccc4oc(C(=O)O)cc(=O)c34)cccc2o1` [disodium cromoglycate], which “inhibition of intracranial mast cells” value [12] is on record?
Answer: inhibited

Question: And the “inhibition of gastrointestinal / mucosal mast cells” value [13]?
Answer: the former but not the latter are inhibited; also recorded: do not have an inhibitory effect specifically on mucosal mast cells

Question: With `CN1CCC(=C2c3ccccc3CCc3cccnc32)CC1` [Azatadine] as the compound, how does the IC20 [8, 15] read?
Answer: 100 nM

Question: Which “ED20 for Histamine Release” value [14] does the source give for `CC(CN1c2ccccc2Sc2ccccc21)N(C)C` (centres unmarked) [Promethazine] here?
Answer: 10^-4 M

Question: For `O=c1[nH]c2ccccc2n1CCCN1CCN(C(c2ccccc2)c2ccccc2)CC1` [Oxatomide], which IC20 [8, 15] is on record?
Answer: 100 nM

Question: For `OCCOCCN1CCN(C(c2ccccc2)c2ccc(Cl)cc2)CC1` (centres unmarked) [hydroxyzine hydrochloride], which gastrointestinal discomfort ([1]; 50 mg/day, three months) is on record?
Answer: almost completely eliminated

Question: What about the “professional and family responsibilities” value ([1]; 50 mg/day, three months) of the same compound?
Answer: able to resume their professional and family responsibilities

Question: And the “symptoms of irritable bowel syndrome on withdrawal” value ([1]; attempted withdrawal)?
Answer: marked increase in symptoms of irritable bowel syndrome

Question: And the “symptoms on resuming the medication” value ([1]; resumed medication)?
Answer: symptoms disappeared

Question: What does the source list for `OCCOCCN1CCN(C(c2ccccc2)c2ccc(Cl)cc2)CC1` (centres unmarked) [hydroxyzine pamoate]?
Answer: professional activities ([1]; 50 mg/day, 4 months): able to resume their professional activities; symptoms of irritable bowel syndrome ([1]; 50 mg/day, 4 months): noticeable improvement of their symptoms

Question: With `CN(C)CCOC(c1ccccc1)c1ccccc1` [Diphenhydramine] as the compound, how does the “ED20 for Histamine Release” value [14] read?
Answer: 10^-3 M

Question: For `CN(C)CCC(c1ccc(Cl)cc1)c1ccccn1` (centres unmarked) [Clorphenyramine], which “ED20 for Histamine Release” value [14] is on record?
Answer: 10^-3 M

Question: With `CNCCc1c[nH]cn1` [N^α -methyl histamine] as the compound, how does the IC20 ([8]; Rattus norvegicus) read?
Answer: 100 nM
